We go through 16 molecules from patent publication US10647690B2, “2,3-epoxy succinyl derivative, preparation method and use thereof” (Institute of Pharmacology and Toxicology Academy of …, priority 2016, dated 2020).

The experiment has as its target T1, Cathepsin K (Homo sapiens, UniProt P43235).
T1 construct: purchased Biovision K150-100
T1 sequence (P43235 115-329): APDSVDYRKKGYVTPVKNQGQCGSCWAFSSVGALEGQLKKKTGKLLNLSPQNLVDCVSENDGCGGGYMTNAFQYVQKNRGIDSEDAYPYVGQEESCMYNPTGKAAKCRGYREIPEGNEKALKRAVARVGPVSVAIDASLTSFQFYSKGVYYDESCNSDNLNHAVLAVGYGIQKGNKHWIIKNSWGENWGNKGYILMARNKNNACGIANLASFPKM
Nature of the experiment: Preliminary screening of Cathepsin K (Cathepsin K Inhibitor Screening Kit K150-100, Biovision). It is filed as biochemical. The conditions noted are these: relative inhibition rate vs 10 μM FF-FMK control; for Inhibition % (1 μM) replicate 1 / Inhibition % (1 μM) replicate 2 / inhibition at 1 µM: 1 μM compound; for Inhibition % (10 μM) replicate 1 / Inhibition % (10 μM) replicate 2 / inhibition at 10 µM: 10 μM compound. The method, then:
1. Method for preliminary screening of Cathepsin K:
Preliminary screening of Cathepsin K was performed by using Cathepsin K Inhibitor Screening Kit (Product No. K150-100) from Biovision Company.
1.1.1 Preparation of Cathepsin K enzyme solution: Cathepsin K enzyme (40 μl) and Cathepsin K reagent (80 μl) were added to Cathepsin K buffer (3.88 ml), and were mixed well, to prepare Cathepsin K enzyme solution with a volume of 4 ml, which was placed on ice for further use.
1.1.2 Preparation of a compound solution: different compounds were separately weighed and dissolved in DMSO (methyl sulfoxide), to prepare solutions at a concentration of 30 mM as stock solutions, and for some insoluble compounds, they were prepared into solutions at a concentration of 10 mM as stock solutions; the 30 mM and 10 mM compound stock solutions were diluted to 1 mM and 100 μM DMSO solutions, respectively; 1 mM and 100 μM compound DMSO solutions (2 μl) were separately added to CTSK buffer (18 μl), to prepare compound solutions at a final concentration of 100 μM and 10 μM, respectively, wherein the concentration of DMSO was 10%.
1.1.3 Preparation of Cathepsin K substrate solution: Cathepsin K substrate (160 μl) was added to Cathepsin K buffer (3.44 ml), and mixed homogeneously, to prepare Cathepsin K substrate solution with a volume of 3.6 ml, which was placed on ice for further use.
1.2 Method for screening Cathepsin K inhibitor: Cathepsin K enzyme solution (prepared in Item 1.1.1) was added to a 384-well plate (ProxiPlate-384 Plus, Perkinelmer) at 10 μl/well, and centrifuged at 1000 rpm for 1 min; the compound solution (prepared in Item 1.1.2) was then added at 2 µl/well, and centrifuged at 1000 rpm for 1 min, and every concentration was repeated in two wells; the plate was placed in a 25° C. incubator for 15 min; Cathepsin K substrate solution was then added at 8 μl/well, and centrifuged at 1000 rpm for 1 min; and finally, the fluorescence signal was read in Enspire, wherein the exciting light was at a wavelength of 400 nm, the emitting light was at a wavelength of 505 nm, and continuous reading was performed at 37° C. for 120 min.
1.3 Data analysis: the slope (S) for all the samples was calculated by ΔRFU (RFU2−RFU1) and time ΔT (T2−T1), including negative control (Enzyme Control, EC) and positive control (Inhibitor Control, IC: 10 μM FF-FMK), and the calculation formula was as followed: Relative inhibition rate %=(SEC−SS)/(SEC−SIC)*100.

The mark [1] stands for this setting: replicate 1, read-out: Inhibition % (1 μM) replicate 1.
Setting [2] is: replicate 2, read-out: Inhibition % (1 μM) replicate 2.
The mark [3] stands for this setting: replicate 1, read-out: Inhibition % (10 μM) replicate 1.
The mark [4] stands for this setting: replicate 2, read-out: Inhibition % (10 μM) replicate 2.

Where two headings read alike, the source gives them in different places.

As to `CCOC(=O)[C@H]1O[C@@H]1C(=O)N[C@@H](CCSC)C(=O)NCCC(C)C` [Compound 1, (2s, 3s)-2-ethoxycarbonyl-3-[2-[(s)-4-methylthio-1-carbonyl-1-(isopentylamino)butane]formylamino]epoxysuccinic acid], for the setting “replicate 1”, the “Inhibition % (1 μM) replicate 1” value worked out at 17.79% and the “Inhibition % (10 μM) replicate 1” value came out at 41.60%. Further, where the note is “replicate 2”, the “Inhibition % (1 μM) replicate 2” value came to 20.59% and the “Inhibition % (10 μM) replicate 2” value was 47.08%.
On to `CCOC(=O)[C@H]1O[C@@H]1C(=O)N[C@@H](CCSC)C(=O)N1CCSC1` [Compound 38, (2s, 3s)-2-ethoxycarbonyl-3-[2-[(s)-4-methylthio-1-carbonyl-1-(tetrahydrothiazolyl)butane]formylamino]epoxysuccinic acid], for which the inhibition (in general, the relative decrease from the control value, in per cent) at 1 µM under setting [1] amounted to 36.8% and the inhibition at 1 µM under setting [2] was determined as 37.9%. The inhibition at 10 µM under setting [3] turned out to be 44.3% and the inhibition at 10 µM under setting [4] was 41.4%.
As to `CCOC(=O)[C@H]1O[C@@H]1C(=O)N[C@@H](CSCc1ccccc1)C(=O)NC(C)(C)CC` [Compound 16, (2s, 3s)-2-ethoxycarbonyl-3-[2-[(s)-3-benzylthio-1-carbonyl-1-(tert-pentylamino)propane]formylamino]epoxysuccinic acid], the inhibition at 1 µM reads like this: under setting [1], 38.9%; under setting [2], 39.2%. In addition, the inhibition at 10 µM was 60.8% under setting [3] and 63.6% under setting [4].
On the same counts, the results for `CCOC(=O)[C@H]1O[C@@H]1C(=O)N[C@@H](CSCc1ccccc1)C(=O)NCCc1ccc(C)cc1` [Compound 21, (2s, 3s)-2-ethoxycarbonyl-3-[2-[(s)-3-benzylthio-1-carbonyl-1-(p-methylphenylethylamino)propane]formylamino]epoxysuccinic acid] are 33.1%, 29.9%, 67.2% and 53%.
On the same counts, the results for `CCCC(C)NC(=O)[C@H](CCSC)NC(=O)[C@H]1O[C@@H]1C(=O)OCC` (stereo partly shown) [Compound 6, (2s, 3s)-2-ethoxycarbonyl-3-[2-[(s)-4-methylthio-1-carbonyl-1-(1-methylbutylamino)butane]formylamino]epoxysuccinic acid] are 31.6%, 36.6%, 33% and 39.1%.
Taken in the same sequence, the figures for `CCOC(=O)[C@H]1O[C@@H]1C(=O)N[C@@H](CCSC)C(=O)N1CCCCC1CC` (stereo partly shown) [Compound 35, (2s, 3s)-2-ethoxycarbonyl-3-[2-[(s)-4-methylthio-1-carbonyl-1-(2-ethylpiperidinyl)butane]formylamino]epoxysuccinic acid] were 37.8%, 22.8%, 72% and 61.1%.
On to `CCOC(=O)[C@H]1O[C@@H]1C(=O)N[C@@H](CCSC)C(=O)N1CCCC(C)C1` (stereo partly shown) [Compound 7, (2s, 3s)-2-ethoxycarbonyl-3-[2-[(s)-4-methylthio-1-carbonyl-1-(3-methylpiperidinyl)butane]formylamino]epoxysuccinic acid], for which the inhibition at 1 µM under setting [1] worked out at 33% and the inhibition at 1 µM under setting [2] was -19.6%. Also, the inhibition at 10 µM runs as follows: under setting [3], 37.4%; under setting [4], 28.4%.
On to `CCCCCNC(=O)[C@H](CCSC)NC(=O)[C@H]1O[C@@H]1C(=O)OCC` [Compound 2, (2s, 3s)-2-ethoxycarbonyl-3-[2-[(s)-4-methylthio-1-carbonyl-1-(pentylamino)butane]formylamino]epoxysuccinic acid], for which the inhibition at 1 µM under setting [1] came to 28.6% and the inhibition at 1 µM under setting [2] is 33.2%. Besides, the inhibition at 10 µM by setting is: under setting [3], 59.5%; under setting [4], 60%.
Taken in the same sequence, the figures for `CCCNC(=O)[C@H](CSCc1ccccc1)NC(=O)[C@H]1O[C@@H]1C(=O)OCC` [Compound 17, (2s, 3s)-2-ethoxycarbonyl-3-[2-[(s)-3-benzylthio-1-carbonyl-1-(propylamino)propane]formylamino]epoxysuccinic acid] were 26.9%, 32.2%, 34.8% and 31.7%.
Taken in the same sequence, the figures for `CCOC(=O)[C@H]1O[C@@H]1C(=O)N[C@@H](CCSC)C(=O)NCC(C)C` [Compound 9, (2s, 3s)-2-ethoxycarbonyl-3-[2-[(s)-4-methylthio-1-carbonyl-1-(isobutylamino)butane]formylamino]epoxysuccinic acid] were 25.6%, 18.1%, 29.2% and 28.8%.
With `CCOC(=O)[C@H]1O[C@@H]1C(=O)N[C@@H](CSCc1ccccc1)C(=O)N1CCC(c2ccccc2)CC1` [Compound 23, (2s, 3s)-2-ethoxycarbonyl-3-[2-[(s)-3-benzylthio-1-carbonyl-1-(4-phenylpiperidinyl)propane]formylamino]epoxysuccinic acid], the inhibition at 1 µM by setting is: under setting [1], 16.1%; under setting [2], 37.7%. The inhibition at 10 µM runs as follows: under setting [3], 70.1%; under setting [4], 63%.
For the molecule `CCOC(=O)[C@H]1O[C@@H]1C(=O)N[C@@H](CSCc1ccccc1)C(=O)NCC(C)(C)C` [Compound 15, (2s, 3s)-2-ethoxycarbonyl-3-[2-[(s)-3-benzylthio-1-carbonyl-1-(neopentylamino)propane]formylamino]epoxysuccinic acid], the inhibition at 1 µM came to 28.1% under setting [1] and 35.6% under setting [2]. Further, the inhibition at 10 µM is, setting by setting: under setting [3], 50.1%; under setting [4], 48.6%.
As for `CCCCCCNC(=O)[C@H](CSCc1ccccc1)NC(=O)[C@H]1O[C@@H]1C(=O)OCC` [Compound 18, (2s, 3s)-2-ethoxycarbonyl-3-[2-[(s)-3-benzylthio-1-carbonyl-1-(hexylamino)propane]formylamino]epoxysuccinic acid], the inhibition at 1 µM was found to be 23.5% under setting [1] and 32.7% under setting [2]. The inhibition at 10 µM under setting [3] came out at 56.1% and the inhibition at 10 µM under setting [4] was found to be 48.2%.
Regarding `CCOC(=O)[C@H]1O[C@@H]1C(=O)N[C@H](CSCc1ccccc1)C(=O)NCCc1ccc(OC)cc1` [Compound 26, (2s, 3s)-2-ethoxycarbonyl-3-[2-[(s)-3-benzylthio-1-carbonyl-1-(4-methoxyphenylethylamino)propane]formylamino]epoxysuccinic acid], for the setting “replicate 1”, the “Inhibition % (1 μM) replicate 1” value is reported as 35.73% and the “Inhibition % (10 μM) replicate 1” value is reported as 67.87%. Where the note is “replicate 2”, the “Inhibition % (1 μM) replicate 2” value is on record as 44.11% and the “Inhibition % (10 μM) replicate 2” value is given as 63.25%.
On to `CCOC(=O)[C@H]1O[C@@H]1C(=O)N[C@@H](CCSC)C(=O)NCC(C)CC` (stereo partly shown) [Compound 3, (2s, 3s)-2-ethoxycarbonyl-3-[2-[(s)-4-methylthio-1-carbonyl-1-(2-methylbutylamino)butane]formylamino]epoxysuccinic acid], for which the inhibition at 1 µM runs as follows: under setting [1], 31%; under setting [2], 16.6%. The inhibition at 10 µM came to 42% under setting [3] and 36.7% under setting [4].
On to `CCOC(=O)[C@H]1O[C@@H]1C(=O)N[C@@H](CCSC)C(=O)NCCc1ccc(OC)cc1` [Compound 10, (2s, 3s)-2-ethoxycarbonyl-3-[2-[(s)-4-methylthio-1-carbonyl-1-(4-methoxyphenylethylamino)butane]formylamino]epoxysuccinic acid], for which the inhibition at 1 µM stood at 33.1% under setting [1] and 35.8% under setting [2]. In addition, the inhibition at 10 µM under setting [3] was found to be 80.2% and the inhibition at 10 µM under setting [4] was found to be 66.5%.
